According to US7855288B2, “Pyrrolo [1,2-d] [1,2-4] triazine as inhibitors of c-Jun N terminal kinases (JNK) and p-38 kinases” (Novartis AG, priority 2004, dated 2010):

Columns and labels:
[1] = target: human recombinant Jnk2 (Homo sapiens, UniProt P45984); experiment: JNK enzymatic assay (33P incorporation into peptide); type: biochemical; conditions: JNK2 kinase IC50 class, Table 1
Method: In a final reaction volume of 20 μL, 5 nM human recombinant Jnk2 was incubated in the absence or presence of putative JNK inhibitors in increasing concentrations with 25 mM HEPES pH 7.5, 20 mM p-glycerophosphate, 10 mM MgCl2, 0.1 mM sodium orthovanadate, 0.005% Tween® 80, 10 uM [γ-^33P-ATP], 500 μM IPTTPITTTYFFFKKK peptide substrate and 2 mM DTT. The reaction was initiated by the addition of the [g-^33P-ATP]. After incubation for 20 minutes at 30° C., the aliquots were transferred onto P30/GF filtermats (PerkinElmer). Each filtermat washed four times in 100 ml 0.5% phosphoric acid, 0.5 mM pyrophosphate, then twice in 50 ml ethanol, dried and sealed into bag containing 5 ml of OptiPhase “SuperMix” liquid scintillation cocktail (PerkinElmer). Radioactivity incorporated into peptide was quantified on Trilux 1450 Microbeta plate-reader. IC50 values were calculated using SigmaPlot.

[2] = target: T1, p38α kinase (Homo sapiens, UniProt Q16539); experiment: p38α assay (ADP release coupled to NADH oxidation); type: biochemical; conditions: p38 kinase IC50 class, Table 1; read-out: p38α inhibition
T1 construct: purchased Upstate
T1 sequence (Q16539 whole entry): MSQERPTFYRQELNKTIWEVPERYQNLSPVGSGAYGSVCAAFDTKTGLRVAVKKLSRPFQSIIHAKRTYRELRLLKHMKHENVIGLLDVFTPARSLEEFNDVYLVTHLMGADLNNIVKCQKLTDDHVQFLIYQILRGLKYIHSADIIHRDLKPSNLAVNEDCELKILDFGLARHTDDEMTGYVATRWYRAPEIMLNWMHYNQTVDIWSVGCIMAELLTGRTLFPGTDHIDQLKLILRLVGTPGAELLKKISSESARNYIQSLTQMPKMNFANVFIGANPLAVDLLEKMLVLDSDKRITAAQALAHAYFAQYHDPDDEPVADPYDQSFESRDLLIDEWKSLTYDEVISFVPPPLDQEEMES
Method: The p38α assay employed is based on measurement of ADP released in the reaction of interest through NADH oxidation obtained by coupling with pyruvate kinase and lactate dehydrogenase reactions. The assays were performed in 384-well UV-plates. The final volume was 25 uL prepared from the addition of 2.5 uL compound dissolved in 10% DMSO, 17.5 uL of assay buffer and 5 uL of ATP. Assay buffer contains the following reagents to give final concentration in the assay: 25 mM HEPES, 20 mM 2-glycerophosphate, pH 7.6, 10 mM MgCl2, 0.1 mM sodium orthovanadate, 0.5 mM phosphoenolpyruvate, 0.12 mM NADH, 3.1 mg/ml LDH, 6.67 mg/ml pyruvate kinase, 0.25 mM peptide substrate, 2 mM DTT, 0.005% Tween 80 and 20 nM p38α kinase from Upstate. Test compounds are preincubated with p38α kinase for 60 min and the reaction started by addition of ATP to 0.15 mM final concentration. Reaction rates were measured at 340 nm using SpectraMax plate-reading spectrophotometer for 10 min at 37° C. Inhibition data were analyzed by non-linear least-squares regression using SigmaPlot.

Chain of human recombinant Jnk2 (P45984 whole entry): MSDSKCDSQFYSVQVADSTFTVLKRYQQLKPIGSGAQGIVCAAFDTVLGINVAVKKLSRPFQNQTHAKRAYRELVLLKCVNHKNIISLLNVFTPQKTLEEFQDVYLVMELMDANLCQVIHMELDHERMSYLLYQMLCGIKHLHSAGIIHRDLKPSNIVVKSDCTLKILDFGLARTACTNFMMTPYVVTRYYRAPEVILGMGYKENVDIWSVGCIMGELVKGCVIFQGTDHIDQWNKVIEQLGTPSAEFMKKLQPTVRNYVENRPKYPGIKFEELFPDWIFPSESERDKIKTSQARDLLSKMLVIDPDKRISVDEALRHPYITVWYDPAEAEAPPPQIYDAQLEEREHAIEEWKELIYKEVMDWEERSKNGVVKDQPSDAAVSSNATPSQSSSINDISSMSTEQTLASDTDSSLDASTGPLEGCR

IC50 [1] [µM] | IC50 [2] [µM] | Structure (SMILES)
1 to 10 | 1 to 10 | CCOC(=O)c1cc2cnnc(Nc3ccccc3)n2c1C [Compound 15]
1 to 10 | 1 to 10 | CCOC(=O)c1cc2cnnc(Nc3cc(C(=O)O)ccc3C)n2c1C [Compound 18]
1 to 10 |  | CCOC(=O)c1cc2cnnc(Nc3cccc(C(=O)O)c3)n2c1C [Compound 17]
< 1 | < 1 | CNC(=O)c1cc2cnnc(Nc3cc(C(=O)NC4CC4)ccc3C)n2c1C [Compound 7]
1 to 10 | 1 to 10 | CCOC(=O)c1cc2cnnc(Nc3ccccc3C)n2c1C [Compound 16]
1 to 10 | 1 to 10 | CCOC(=O)c1cc2cnnc(Nc3cc(C(=O)NC4CC4)ccc3OC)n2c1C [Compound 1, 4-(5-Cyclopropylcarbamoyl-2-methoxy-phenylamino)-6-methyl-pyrrolo[1,2-d][1,2,4]triazine-7-carboxylic acid ethyl ester]
> 10 |  | CCOC(=O)c1cc2cnnc(Nc3cc(C(=O)N4CCOCC4)ccc3C)n2c1C [Compound 22]
1 to 10 |  | CCOC(=O)c1cc2cnnc(Nc3cc(-c4ncco4)ccc3C)n2c1C [Compound 13]
> 10 |  | CCOC(=O)c1cc2cnnc(Nc3cc(C(N)=O)ccc3C)n2c1C [Compound 23]
1 to 10 | 1 to 10 | CCOC(=O)c1cc2cnnc(Nc3cc(C(=O)Nc4ccccc4)ccc3C)n2c1C [Compound 12]
1 to 10 |  | CCOC(=O)c1cc2cnnc(Nc3ccc(C(=O)OC)cc3)n2c1C [Compound 10]
1 to 10 | 1 to 10 | CCOC(=O)c1cc2cnnc(Nc3ccc(Cl)cc3)n2c1C [Compound 6]
1 to 10 | 1 to 10 | CCNC(=O)c1ccc(C)c(Nc2nncc3cc(C(=O)OCC)c(C)n23)c1 [Compound 9]
1 to 10 | 1 to 10 | CCOC(=O)c1cc2cnnc(Nc3cccc(C(=O)NC4CC4)c3)n2c1C [Compound 11]
 | 1 to 10 | CCOC(=O)c1cc2cnnc(Nc3cc(-c4nnc[nH]4)ccc3C)n2c1C [Compound 2, 4-[2-Methyl-5-(4H-[1,2,4]triazol-3-yl)-phenylamino]-6-methyl-pyrrolo[1,2-d][1,2,4]triazine-7-carboxylic acid ethyl ester]
1 to 10 | 1 to 10 | CCOC(=O)c1cc2cnnc(Nc3cc(C(=O)NCc4ccccc4)ccc3C)n2c1C [Compound 20]
< 1 | < 1 | CCOC(=O)c1cc2cnnc(Nc3cc(C(=O)NC4CC4)ccc3C)n2c1C [Compound 3, 4-(5-Cyclopropylcarbamoyl-2-methyl-phenylamino)-6-methyl-pyrrolo[1,2-d][1,2,4]triazine-7-carboxylic acid ethyl ester]
< 1 | < 1 | Cc1ccc(C(=O)NC2CC2)cc1Nc1nncc2cc(C(=O)NCc3ccccc3)c(C)n12 [Compound 4, 4-(5-Cyclopropylcarbamoyl-2-methyl-phenylamino)-6-methyl-pyrrolo[1,2-d][1,2,4]triazine-7-carboxylic acid benzylamide]
1 to 10 | > 10 | CCOC(=O)c1cc2cnnc(Nc3cc(NC(C)=O)ccc3C)n2c1C [Compound 19]
1 to 10 | 1 to 10 | CCOC(=O)c1cc2cnnc(Nc3cc(NC(=O)OC(C)C)ccc3C)n2c1C [Compound 14]
< 1 | < 1 | CCOC(=O)Nc1ccc(C)c(Nc2nncc3cc(C(=O)OCC)c(C)n23)c1 [Compound 5, 4-(5-Ethoxycarbonylamino-2-methyl-phenylamino)-6-methyl-pyrrolo[1,2-d][1,2,4]triazine-7-carboxylic acid ethyl ester]
> 10 | > 10 | CCOC(=O)c1cc2cnnc(Nc3cc(N)ccc3C)n2c1C [Compound 24]
1 to 10 | < 1 | Cc1ccc(C(=O)NC2CC2)cc1Nc1nncc2cc(C(=O)NC3CC3)c(C)n12 [Compound 8]
> 10 |  | CCOC(=O)c1cc2cnnc(Nc3cc(C(=O)NC(C)C)ccc3C)n2c1C [Compound 21]
